In ChEMBL document CHEMBL5390209, “Spinosyn A and Its Derivative Inhibit Colorectal Cancer Cell Growth via the EGFR Pathway” (J Nat Prod, 2023) one finds Activity and inhibition data, which are given here for one compound.

Activity calls are given as the source filed them. The rule behind the calls is not given here.

Data set [1] concerns HT-29. Nature of the data set: Antitumor activity against human HT-29 cells xenografted Balb/c mouse assessed as reduction in tumor growth at 10 mg/kg/day, ip administrated for twice a week and measured after 28 days. The format is functional, organism-based. Particulars: time 28.0 day. For orientation: A xenograft is tissue or cells of one species grown in another, often human tumour cells in immunodeficient mice.

Data set [2] deals with HT-29. Nature of the data set: Antitumor activity against human HT-29 cells xenografted Balb/c mouse assessed as reduction in tumor cell density at 10 mg/kg/day, ip administrated for twice a week and measured after 28 days by Hematoxylin and Eosin staining based method. Conditions: time 28.0 day. It is filed as functional, organism-based.
Data set [3] deals with HT-29. Nature of the data set: Inhibition of HER2 in human HT-29 cells xenografted in BALB/c nude mouse assessed as HER2 protein level in tumor at 10 mg/kg/day, ip administrated for twice a week and measured after 28 days by Western blotting analysis. The format is functional, organism-based. Conditions: time 28.0 day.
Data set [4] deals with HT-29. Nature of the data set: Inhibition of EGFR in human HT-29 cells xenografted in BALB/c nude mouse assessed as EGFR protein level in tumor at 10 mg/kg/day, ip administrated for twice a week and measured after 28 days by Western blotting analysis. It is filed as functional, organism-based. Conditions: time 28.0 day.
The test system of data set [5] is HT-29. Nature of the data set: Inhibition of EGFR in human HT-29 cells xenografted in BALB/c nude mouse assessed as reduction in EGFR protein expression level in tumor at 10 mg/kg/day, ip administrated for twice a week and measured after 28 days by Western blotting analysis. It is filed as functional, organism-based. Conditions: time 28.0 day.
In data set [6] the test system is HT-29. Nature of the data set: Antitumor activity against human HT-29 cells xenografted Balb/c mouse assessed as inhibited tumor growth at 10 mg/kg/day, ip administrated for twice a week and measured after 6 days. It is filed as functional, organism-based. Particulars: time 6.0 day.
Data set [7] is described as follows: Toxicity in human HT-29 cells xenografted Balb/c mouse assessed as change in spleen pathology at 10 mg/kg/day, ip administrated for twice a week and measured after 28 days. It is filed as organism-based. Conditions: in vivo, 672 h, time 28 day.
The nature of data set [8]: Toxicity in human HT-29 cells xenografted Balb/c mouse assessed as change in body weight at 10 mg/kg/day, ip administrated for twice a week and measured after 6 days. The format is organism-based. Conditions: in vivo, 144 h, time 6 day.
The nature of data set [9]: Toxicity in human HT-29 cells xenografted Balb/c mouse assessed as change in liver pathology at 10 mg/kg/day, ip administrated for twice a week and measured after 28 days. The format is organism-based. Conditions: in vivo, 672 h, time 28 day.
For data set [10], the system named is HT-29. Nature of the data set: Antitumor activity against human HT-29 cells xenografted Balb/c mouse assessed as reduction in Ki67 expression level at 10 mg/kg/day, ip administrated for twice a week and measured after 28 days by immunohistochemistry staining method. Conditions: time 28.0 day. It is filed as functional, organism-based.
The test system of data set [11] is HT-29. Nature of the data set: Inhibition of HER2 in human HT-29 cells xenografted in BALB/c nude mouse assessed as HER2 protein expression level in tumor at 10 mg/kg/day, ip administrated for twice a week and measured after 28 days by Western blotting analysis. The format is functional, organism-based. Conditions: time 28.0 day.
Data set [12] can be described thus: Toxicity in human HT-29 cells xenografted Balb/c mouse assessed as change in lung pathology at 10 mg/kg/day, ip administrated for twice a week and measured after 28 days. Particulars: in vivo, 672 h, time 28 day. The format is organism-based.
Data set [13] in a line: Toxicity in human HT-29 cells xenografted Balb/c mouse assessed as change in kidney pathology at 10 mg/kg/day, ip administrated for twice a week and measured after 28 days. It is filed as organism-based. Particulars: in vivo, 672 h, time 28 day.
Data set [14] in a line: Toxicity in human HT-29 cells xenografted Balb/c mouse assessed as change in heart pathology at 10 mg/kg/day, ip administrated for twice a week and measured after 28 days. It is filed as organism-based. Conditions: in vivo, 672 h, time 28 day.

On to `O=c1[nH]cc(F)c(=O)[nH]1` [FLUOROURACIL], for which the result in the data set on HT-29 [1], in the data set with HT-29 [2] and with HT-29 [10] was Active. The inhibition result in the data set on HT-29 [3] and in the data set with HT-29 [11] was “inactive” throughout. The inhibition result in the data set with HT-29 [4], in the data set on HT-29 [5] and with HT-29 [6] was “Active” each time. Further, the Activity entry in [7], in [8], in [9], in data set [12], in data set [13] and in data set [14] was “Non-Toxic” each time.
